Laboratory results: patent US9802947B2, “3-oxo-tetrahydro-furo[3,2-b]pyrrol-4(5H)-yl) derivatives II” (GRÜNENTHAL GMBH, priority 2014, dated 2017)
pKi: −log10 of the molar value. Each block holds one compound with its values, some of them ahead of it.

Key:
Format in all cases: biochemical
[1] = biological target: recombinant human cathepsin L (hCatL) (Homo sapiens (Human), UniProt P07711); assay: CatL functional enzyme assay (fluorogenic substrate Z-VVR-AMC); conditions: pH 5.5
Experimental: (§1) Reference and test compounds were assayed for inhibitory potency (IC50) against human cathepsins using the following assay setups:
(§2) Recombinant human cathepsins (CatS, CatK, CatL, CatB) were purchased from a Enzo Life Sciences. All assays were carried out in 96-well format using a buffer of 50 mM KH2PO4, 50 mM NaCl, 2 mM EDTA, 0.5 mM DTT and 1% Triton-X-100, pH 6.5 for Cathepsin S and a buffer of 50 mM NaOAc, 10 mM EDTA, 1 mM DTT and 0.01% Triton-X-100, pH 5.5 for CatK/L/B. For CatS, the enzyme (0.0007 mU/well) was incubated with fluorogeninc substrate (Z-VVR-AMC, 5 μM) at RT for 10 min. For CatK the enzyme (0.00175 mU/well) was incubated with fluorogeninc substrate (Z-FR-AMC, 40 μM) at RT for 10 min. For CatL, the enzyme (0.000874 mU/well) was incubated with fluorogeninc substrate (Z-VVR-AMC, 40 μM) at RT for 10 min. For CatB the enzyme was incubated with fluorogenic substrate (Z-VVR-AMC, 200 μM) at RT for 10 min. Flourogenic substrate turnover was detected using a microplate reader (Synergyl™ H4, BioTek). Ki values were calculated using the Cheng Prusoff equation (Cheng & Prosoff 1973).

[2] = biological target: recombinant human cathepsin K (hCatK) (Homo sapiens (Human), UniProt P43235); assay: CatK functional enzyme assay (fluorogenic substrate Z-FR-AMC); conditions: for pKi: Ki calculated by Cheng Prusoff equation, pH 5.5; for Selectivity Ki(hCatS)/Ki(hCatK): ratio of Ki hCatS to Ki hCatK
recombinant human cathepsin K (hCatK), sequence (P43235 115-329): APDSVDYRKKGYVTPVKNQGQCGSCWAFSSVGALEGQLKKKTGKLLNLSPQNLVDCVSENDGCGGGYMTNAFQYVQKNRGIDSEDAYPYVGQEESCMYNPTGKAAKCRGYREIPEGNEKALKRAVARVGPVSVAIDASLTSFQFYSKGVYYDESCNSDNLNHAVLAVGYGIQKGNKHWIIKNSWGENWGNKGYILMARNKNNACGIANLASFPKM
Experimental: as §1, §2

[3] = biological target: recombinant human cathepsin S (hCatS) (Homo sapiens (Human), UniProt P25774); assay: CatS functional enzyme assay (fluorogenic substrate Z-VVR-AMC); conditions: Ki calculated by Cheng Prusoff equation; pH 6.5
recombinant human cathepsin S (hCatS), sequence (P25774 115-331): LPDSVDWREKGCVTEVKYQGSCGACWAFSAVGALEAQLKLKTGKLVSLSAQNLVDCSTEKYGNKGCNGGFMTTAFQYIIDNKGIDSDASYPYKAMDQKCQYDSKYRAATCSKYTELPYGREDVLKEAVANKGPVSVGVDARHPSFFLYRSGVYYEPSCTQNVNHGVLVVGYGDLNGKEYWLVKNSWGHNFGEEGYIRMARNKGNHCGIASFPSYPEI
Experimental: as §1, §2

recombinant human cathepsin L (hCatL), sequence (P07711 114-333): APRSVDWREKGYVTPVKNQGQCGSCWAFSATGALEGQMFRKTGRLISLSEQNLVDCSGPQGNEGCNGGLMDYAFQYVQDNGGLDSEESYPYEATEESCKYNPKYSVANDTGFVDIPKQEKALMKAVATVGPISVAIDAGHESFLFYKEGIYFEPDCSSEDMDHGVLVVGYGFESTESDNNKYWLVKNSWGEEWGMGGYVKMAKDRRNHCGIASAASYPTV

SMILES: O=C(N[C@H](C(=O)N1C[C@H](Cl)[C@H]2OCC(=O)[C@H]21)C1CCCC1)c1ccc(-c2cnccn2)s1 [Example 5, N—((S)-2-((3aS,6S,6aS)-6-chloro-3-oxotetrahydro-2H-furo[3,2-b]pyrrol-4(5H)-yl)-1-cyclopentyl-2-oxoethyl)-5-(pyrazin-2-yl)thiophene-2-carboxamide]
inhibition at 31.6 µM [1]: 81%
pKi [2]: 8.68
Selectivity Ki(hCatS)/Ki(hCatK) [2]: 169
pKi [3]: 6.45

SMILES: O=C(N[C@H](C(=O)N1C[C@H](Cl)[C@H]2OCC(=O)[C@H]21)C1CCCC1)c1ccc(-c2cncc(F)c2)s1 [Example 6, N—((S)-2-((3aS,6S,6aS)-6-chloro-3-oxotetrahydro-2H-furo[3,2-b]pyrrol-4(5H)-yl)-1-cyclopentyl-2-oxoethyl)-5-(5-fluoropyridin-3-yl)thiophene-2-carboxamide]
inhibition at 31.6 µM [1]: 42%
pKi [2]: 8.51
Selectivity Ki(hCatS)/Ki(hCatK) [2]: 55
pKi [3]: 6.76

SMILES: O=C(N[C@H](C(=O)N1C[C@H](Cl)[C@H]2OCC(=O)[C@H]21)C1CCCC1)c1ncc(-c2cccnn2)s1 [Example 7, N—((S)-2-((3aS,6S,6aS)-6-chloro-3-oxotetrahydro-2H-furo[3,2-b]pyrrol-4(5H)-yl)-1-cyclopentyl-2-oxoethyl)-5-(pyridazin-3-yl)thiazole-2-carboxamide]
inhibition at 31.6 µM [1]: 62%
pKi [2]: 8.28
Selectivity Ki(hCatS)/Ki(hCatK) [2]: 50
pKi [3]: 6.58

SMILES: O=C(N[C@H](C(=O)N1C[C@H](Cl)[C@H]2OCC(=O)[C@H]21)C1CCCC1)c1cccc(-c2cccnc2)c1 [Comparative Example C1, N—((S)-2-((3aS,6S,6aS)-6-chloro-3-oxotetrahydro-2H-furo[3,2-b]pyrrol-4(5H)-yl)-1-cyclopentyl-2-oxoethyl)-3-(pyridin-3-yl)benzamide, reference compound]
pKi [2]: 7.83
Selectivity Ki(hCatS)/Ki(hCatK) [2]: 6
pKi [3]: 7.08

SMILES: O=C(N[C@H](C(=O)N1C[C@H](Cl)[C@H]2OCC(=O)[C@H]21)C1CCCC1)c1ccc(-c2ccnnc2)s1 [Example 4, N—((S)-2-((3aS,6S,6aS)-6-chloro-3-oxotetrahydro-2H-furo[3,2-b]pyrrol-4(5H)-yl)-1-cyclopentyl-2-oxoethyl)-5-(pyridazin-4-yl)thiophene-2-carboxamide]
inhibition at 31.6 µM [1]: 73%
pKi [2]: 8.74
Selectivity Ki(hCatS)/Ki(hCatK) [2]: 22
pKi [3]: 7.40

Continued, values first:

inhibition at 31.6 µM [1]: 73%
pKi [2]: 8.68
Selectivity Ki(hCatS)/Ki(hCatK) [2]: 53
pKi [3]: 6.96
SMILES: O=C(N[C@H](C(=O)N1C[C@H](Cl)[C@H]2OCC(=O)[C@H]21)C1CCCC1)c1ccc(-c2cncnc2)s1 [Example 3, N—((S)-2-((3aS,6S,6aS)-6-chloro-3-oxotetrahydro-2H-furo[3,2-b]pyrrol-4(5H)-yl)-1-cyclopentyl-2-oxoethyl)-5-(pyrimidin-5-yl)thiophene-2-carboxamide]

inhibition at 31.6 µM [1]: 45%
pKi [2]: 9.15
Selectivity Ki(hCatS)/Ki(hCatK) [2]: 453
pKi [3]: 6.51
SMILES: O=C(N[C@H](C(=O)N1C[C@H](Cl)[C@H]2OCC(=O)[C@H]21)C1CCCC1)c1ccc(-c2cccnc2)s1 [Example 2, N—((S)-2-((3aS,6S,6aS)-6-chloro-3-oxotetrahydro-2H-furo[3,2-b]pyrrol-4(5H)-yl)-1-cyclopentyl-2-oxoethyl)-5-(pyridin-3-yl)thiophene-2-carboxamide]

inhibition at 31.6 µM [1]: 72%
pKi [2]: 8.82
Selectivity Ki(hCatS)/Ki(hCatK) [2]: 99
pKi [3]: 6.82
SMILES: O=C(N[C@H](C(=O)N1C[C@H](Cl)[C@H]2OCC(=O)[C@H]21)C1CCCC1)c1ccc(-c2cccnn2)s1 [Example 1, N—((S)-2-((3aS,6S,6aS)-6-chloro-3-oxotetrahydro-2H-furo[3,2-b]pyrrol-4(5H)-yl)-1-cyclopentyl-2-oxoethyl)-5-(pyridazin-3-yl)thiophene-2-carboxamide]

inhibition at 31.6 µM [1]: 50%
pKi [2]: 9.10
Selectivity Ki(hCatS)/Ki(hCatK) [2]: 210
pKi [3]: 6.80
SMILES: O=C(N[C@H](C(=O)N1C[C@H](Cl)[C@H]2OCC(=O)[C@H]21)C1CCCC1)c1ccc(-c2ccncc2)s1 [Example 8, N—((S)-2-((3aS,6S,6aS)-6-chloro-3-oxotetrahydro-2H-furo[3,2-b]pyrrol-4(5H)-yl)-1-cyclopentyl-2-oxoethyl)-5-(pyridin-4-yl)thiophene-2-carboxamide]
